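Tested at 5 concentrations; 48 h exposure; 96-well plates; endpoints linearly interpolated, else capped at highest concentration. GI50 is the concentration that inhibits growth by half. TGI: concentration producing complete growth inhibition.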

For orientation: GI50 means the concentration that inhibits growth by half. By TGI is commonly meant the concentration giving total growth inhibition. Read a low TGI as more potent growth arrest.

Some test systems named below: UACC-62 melanoma; OVCAR-5 ovarian; CCRF-CEM leukemia; NCI-H226 lung; SK-MEL-2 melanoma; TK-10 renal; HCT-15 colon; HT29 colon; M14 melanoma; EKVX NSCLC.
Common to all, as to assay: DTP human tumour cell line panel, 48 h

With `CCOc1ccc(-c2nonc2NC(=O)c2cccc(C)c2)cc1OCC`, the GI50 in the assay with UACC-62 melanoma is above 100 µM; in the assay with OVCAR-5 ovarian, above 100 µM; in the assay with CCRF-CEM leukemia, above 100 µM; with NCI-H226 lung it was above 100 µM; with SK-MEL-2 melanoma it was above 100 µM; in the assay with TK-10 renal, 22.7 µM. In addition, the GI50 with HCT-15 colon and in the assay on HT29 colon was above 100 µM throughout. Besides, the concentration for total growth inhibition (TGI) in the assay on UACC-62 melanoma is above 100 µM; in the assay on OVCAR-5 ovarian, above 100 µM; in the assay with CCRF-CEM leukemia it was above 100 µM; with NCI-H226 lung, above 100 µM; in the assay on SK-MEL-2 melanoma it was above 100 µM; in the assay with TK-10 renal, 46.8 µM. The TGI in the assay with HCT-15 colon and in the assay with HT29 colon was above 100 µM each time.
Consider `CC1(CO)OC(n2cc(C(=O)NC(=O)OCc3ccccc3)c(=O)[nH]c2=O)CC1O` (configuration not stated), for which the concentration for total growth inhibition (TGI) in the assay with UACC-62 melanoma, in the assay with CCRF-CEM leukemia, in the assay on NCI-H226 lung, in the assay with TK-10 renal, with HCT-15 colon and in the assay with M14 melanoma was above 100 µM each time. Further, the TGI in the assay on HT29 colon is above 100 µM.
`Cc1ccc(/C=C2/SC(Nc3nc(-c4csc(NC5=NC(=O)/C(=C\c6ccc(C)cc6)S5)n4)cs3)=NC2=O)cc1`: the GI50 was 1.95 µM in the assay with UACC-62 melanoma; 18.9 µM in the assay with OVCAR-5 ovarian; 1.58 µM in the assay on NCI-H226 lung; above 50 µM with SK-MEL-2 melanoma; 8.49 µM in the assay on TK-10 renal; 14.9 µM in the assay on EKVX NSCLC. In addition, the GI50 with M14 melanoma is 1.31 µM; in the assay with HT29 colon it was 21.1 µM. For the same molecule, the TGI was 13.6 µM in the assay on UACC-62 melanoma; above 50 µM with OVCAR-5 ovarian; 28 µM with NCI-H226 lung; above 50 µM with SK-MEL-2 melanoma; 26.6 µM in the assay on TK-10 renal; above 50 µM in the assay with EKVX NSCLC. In addition, the concentration for total growth inhibition (TGI) in the assay on M14 melanoma was 7.74 µM; with HT29 colon, above 50 µM.
With `COc1cc2cc(Oc3ccc(NC(=O)Nc4cccc(C(F)(F)F)c4)cc3)c(C)nc2cc1OC`, the GI50 with UACC-62 melanoma was 1.84 µM; in the assay on OVCAR-5 ovarian, 3.02 µM; in the assay with NCI-H226 lung, 1.8 µM; in the assay on SK-MEL-2 melanoma it was 1.28 µM; in the assay with TK-10 renal, 2.26 µM; with EKVX NSCLC, 1.48 µM. In addition, the values for the GI50 in the assay on HCT-15 colon, with M14 melanoma and in the assay with HT29 colon were 1.85 µM, 1.67 µM and 2.05 µM, respectively. In addition, the concentration for total growth inhibition (TGI) was 10.9 µM with UACC-62 melanoma; 13 µM with OVCAR-5 ovarian; 5.6 µM with NCI-H226 lung; 2.87 µM with SK-MEL-2 melanoma; 9.93 µM with TK-10 renal; 6.46 µM in the assay with EKVX NSCLC. Further, the TGI with HCT-15 colon is 22.2 µM; in the assay with M14 melanoma, 7.67 µM; in the assay on HT29 colon, 6.26 µM.
Take `CC(=O)OC[C@]1(O)CC[C@@]23CC1C[C@@H]2CCC1C(C)(C)CCC[C@@]13C` (some centres not stated): the TGI in the assay on UACC-62 melanoma came to 26.2 µM; with OVCAR-5 ovarian, 23.5 µM; in the assay on CCRF-CEM leukemia, 25.7 µM; in the assay with NCI-H226 lung, 32.7 µM; in the assay on TK-10 renal, 26.2 µM; in the assay with HCT-15 colon, 30 µM. Moreover, the TGI in the assay with M14 melanoma stood at 26.9 µM; in the assay with HT29 colon, 25.7 µM.
As for `CC(C)[C@H](CO)Nc1nc(Nc2ccc(C(=O)NCCNS(=O)(=O)c3cccc4c(N(C)C)cccc34)c(Cl)c2)c2ncn(C(C)C)c2n1`, the GI50 in the assay on UACC-62 melanoma is 3.4 µM; in the assay on OVCAR-5 ovarian, 5.18 µM; in the assay with CCRF-CEM leukemia, 3.01 µM; in the assay with NCI-H226 lung, 2.75 µM; in the assay with SK-MEL-2 melanoma, 2.67 µM; in the assay on TK-10 renal it was 7.62 µM. For the same molecule, the GI50 is 4.29 µM with HCT-15 colon, 3.24 µM in the assay with M14 melanoma and 2.5 µM in the assay on HT29 colon. In addition, the TGI was above 100 µM in the assay with UACC-62 melanoma; above 100 µM with OVCAR-5 ovarian; above 100 µM in the assay with CCRF-CEM leukemia; above 40 µM in the assay on NCI-H226 lung; 7.73 µM with SK-MEL-2 melanoma; above 100 µM with TK-10 renal. Besides, the values for the TGI in the assay with HCT-15 colon, in the assay on M14 melanoma and with HT29 colon were above 100 µM, above 100 µM and above 41.8 µM, respectively.
On to `CCn1c(CN2CCN(Cc3ccccc3)CC2)nc2cc(NC(=O)c3cccs3)ccc21`, for which the GI50 in the assay with UACC-62 melanoma was 14.3 µM; with OVCAR-5 ovarian it was 17 µM; in the assay on NCI-H226 lung, 15.2 µM; in the assay on SK-MEL-2 melanoma, 20 µM; in the assay on TK-10 renal, 24 µM; with HCT-15 colon, 14.1 µM. Moreover, the GI50 was 16.9 µM in the assay with M14 melanoma and 16.8 µM with HT29 colon. In addition, the TGI in the assay with UACC-62 melanoma was found to be 31.5 µM; with OVCAR-5 ovarian, 63.3 µM; in the assay on NCI-H226 lung, 41.5 µM; with SK-MEL-2 melanoma, 39.3 µM; in the assay with TK-10 renal, 70.4 µM; in the assay on HCT-15 colon, 51.6 µM. Also, the concentration for total growth inhibition (TGI) in the assay on M14 melanoma worked out at 33.4 µM; with HT29 colon, 47.3 µM.
Take `O=C1C(=O)c2ccccc2C(O)=C1CC=C(Br)Br`: the GI50 with UACC-62 melanoma is 1.57 µM; with OVCAR-5 ovarian it was 21.8 µM; in the assay with CCRF-CEM leukemia it was 2.7 µM; in the assay on NCI-H226 lung, 11.6 µM; in the assay with SK-MEL-2 melanoma it was 12.2 µM; in the assay with HCT-15 colon it was 0.368 µM. The GI50 was 7.38 µM with M14 melanoma and 3.25 µM in the assay on HT29 colon. Besides, the total growth inhibition concentration (TGI) is 35.9 µM in the assay on UACC-62 melanoma; above 100 µM in the assay on OVCAR-5 ovarian; above 100 µM in the assay on CCRF-CEM leukemia; 53.2 µM in the assay with NCI-H226 lung; 30.9 µM with SK-MEL-2 melanoma; above 100 µM with HCT-15 colon. Besides, the TGI stood at 55.4 µM in the assay with M14 melanoma and 53.5 µM in the assay on HT29 colon.
Regarding `Cc1ccc(-n2c3c(c4c(CN(C)C)c(O)ccc42)CCc2ccccc2C3=O)cc1`, the GI50 is 17 µM in the assay with UACC-62 melanoma; 19.7 µM with OVCAR-5 ovarian; 18.1 µM in the assay on NCI-H226 lung; 19.9 µM with SK-MEL-2 melanoma; 18.9 µM in the assay on TK-10 renal; 38 µM in the assay on EKVX NSCLC. In addition, the GI50 was 18.3 µM in the assay with HCT-15 colon, 16.1 µM in the assay with M14 melanoma and above 100 µM with HT29 colon. The TGI is 30.9 µM in the assay with UACC-62 melanoma; 52.9 µM with OVCAR-5 ovarian; 37 µM with NCI-H226 lung; 44.5 µM with SK-MEL-2 melanoma; 35.6 µM in the assay on TK-10 renal; above 100 µM in the assay on EKVX NSCLC. For the same molecule, the results for the concentration for total growth inhibition (TGI) with HCT-15 colon, with M14 melanoma and in the assay with HT29 colon were 35.8 µM, 30.2 µM and above 100 µM, respectively.
Regarding `COc1c(OC)c(OC)c2c(c1OC)c(=O)c1ccccc1n2C`, the TGI in the assay on UACC-62 melanoma, in the assay on OVCAR-5 ovarian, with NCI-H226 lung, in the assay with SK-MEL-2 melanoma, in the assay with TK-10 renal and in the assay on EKVX NSCLC was above 100 µM in each case. The TGI in the assay on HCT-15 colon, in the assay with M14 melanoma and in the assay with HT29 colon was above 100 µM throughout.

The values are drawn from PubChem BioAssay (NCI).
